From patent publication US20250136576A1, “Heterocyclic Compounds and Uses Thereof” (ACEA Therapeutics, Inc., priority 2021, published 2025)
Read-outs that look alike come from different tables or passages of the source.

Test system: KM12-luc cells
Test: Cell proliferation and growth inhibition assay (CCK-8) in KM12-luc
Type: cell-based
Conditions: KM12-luc cells, treated with test compounds for 72 hrs, CCK-8 viability, read-out: NTRK IC50 in KM12-luc
Protocol: MV-4-11 and H1975 cells were obtained from the American Type Culture Collection and KM12-luc cells were obtained from JCRB Cell Bank. All cell lines were maintained at 37° C. with 5% C02, in media supplemented with 10% fetal bovine serum and penicillin (100 units/mL) and streptomycin (100 μg/mL). MV-4-11 cells were maintained in Iscove's Modified Dubecco's Medium, H1975 cells were cultured with RPMI 1640 media, and KM12-luc cells were maintained in Dulbecco's Modification of Eagle's Medium. CCK-8 reagent was obtained from Yeasen. Cell proliferation was assessed by CCK-8 assay (Yeasen) per the manufacturer's instructions. […] Cell viability was assayed by incubating the cells with CCK-8 reagent for 1-4 hrs. Absorbance was measured at OD450 using the Beckman DTX880. The data was calculated using GraphPad Prism version 6.01. The IC50 values were fitted using a non-linear regression model with a sigmoidal dose response.

| Compound | IC50 (KM12-Luc, 72 h) [nM] | IC50 [nM] |
| --- | --- | --- |
| CC(=O)Nc1cc(Nc2nc(-c3cn(C)c4ccccc34)c3occc3n2)ccc1N(C)CCN(C)C [Compound 256a, N-(2-((2-(dimethylamino)ethyl)(methyl)amino)-5-((4-(1-methyl-1H-indol-3-yl)furo[3,2-d]pyrimidin-2-yl)amino)phenyl)acetamide] | 447 |  |
| CC(=O)Nc1cc(Nc2nc(-c3cn(C)c4ccccc34)c3occc3n2)cc(F)c1N(C)CCN(C)C [Compound 256b, N-(2-((2-(dimethylamino)ethyl) (methyl)amino)-3-fluoro-5-((4-(1-methyl-1H-indol-3-yl)furo[3,2-d]pyrimidin-2-yl)amino)phenyl) acetamide] | 748 |  |
| CCN(CCN(C)C)c1ccc(Nc2nc(-c3cn(C)c4ccccc34)c3occc3n2)cc1NC(C)=O [Compound 256c, N-(2-((2-(dimethylamino)ethyl)(ethyl)amino)-5-((4-(1-methyl-1H-indol-3-yl)furo[3,2-d]pyrimidin-2-yl)amino)phenyl)acetamide] | 587 |  |
| CCN(CCN(C)C)c1c(F)cc(Nc2nc(-c3cn(C)c4ccccc34)c3occc3n2)cc1NC(C)=O [Compound 256d, N-(2-((2-(dimethylamino)ethyl)(ethyl)amino)-3-fluoro-5-((4-(1-methyl-1H-indol-3-yl)furo[3,2-d]pyrimidin-2-yl)amino)phenyl)acetamide] | 1000 |  |
| CC(=O)Nc1cc(Nc2nc3c(c(-c4cn(C)c5ccccc45)n2)COCC3)ccc1N(C)CCN(C)C [Compound 257a, N-(2-((2-(dimethylamino)ethyl)(methyl)amino)-5-((4-(1-methyl-1H-indol-3-yl)-7,8-dihydro-5H-pyrano[4,3-d]pyrimidin-2-yl)amino)phenyl)acetamide] | > 10000 |  |
| CC(=O)Nc1cc(Nc2nc3c(c(-c4cn(C)c5ccccc45)n2)COCC3)cc(F)c1N(C)CCN(C)C [Compound 257b, N-(2-((2-(dimethylamino)ethyl)(methyl)amino)-3-fluoro-5-((4-(1-methyl-1H-indol-3-yl)-7,8-dihydro-5H-pyrano[4,3-d]pyrimidin-2-yl)amino)phenyl)acetamide] | > 10000 |  |
| CCN(CCN(C)C)c1ccc(Nc2nc3c(c(-c4cn(C)c5ccccc45)n2)COCC3)cc1NC(C)=O [Compound 257c, N-(2-((2-(dimethylamino)ethyl)(ethyl)amino)-5-((4-(1-methyl-1H-indol-3-yl)-7,8-dihydro-5H-pyrano[4,3-d]pyrimidin-2-yl)amino)phenyl)acetamide] | > 10000 |  |
| CCN(CCN(C)C)c1c(F)cc(Nc2nc3c(c(-c4cn(C)c5ccccc45)n2)COCC3)cc1NC(C)=O [Compound 257d, N-(2-((2-(dimethylamino)ethyl)(ethyl)amino)-3-fluoro-5-((4-(1-methyl-1H-indol-3-yl)-7,8-dihydro-5H-pyrano[4,3-d]pyrimidin-2-yl)amino)phenyl)acetamide] | > 10000 |  |
| CC(=O)Nc1cc(Nc2nc3c(c(-c4cn(C)c5ccccc45)n2)CCO3)ccc1N(C)CCN(C)C [Compound 258a, N-(2-((2-(dimethylamino)ethyl)(methyl)amino)-5-((4-(1-methyl-1H-indol-3-yl)-5,6-dihydrofuro[2,3-d]pyrimidin-2-yl)amino)phenyl)acetamide] | > 1000 |  |
| CC(=O)Nc1cc(Nc2nc3c(c(-c4cn(C)c5ccccc45)n2)CCO3)cc(F)c1N(C)CCN(C)C [Compound 258b, N-(2-((2-(dimethylamino)ethyl)(methyl)amino)-3-fluoro-5-((4-(1-methyl-1H-indol-3-yl)-5,6-dihydrofuro[2,3-d]pyrimidin-2-yl)amino)phenyl)acetamide] | > 1000 |  |
| CCN(CCN(C)C)c1ccc(Nc2nc3c(c(-c4cn(C)c5ccccc45)n2)CCO3)cc1NC(C)=O [Compound 258c, N-(2-((2-(dimethylamino)ethyl)(ethyl)amino)-5-((4-(1-methyl-1H-indol-3-yl)-5,6-dihydrofuro[2,3-d]pyrimidin-2-yl)amino)phenyl)acetamide] | > 1000 |  |
| CCN(CCN(C)C)c1c(F)cc(Nc2nc3c(c(-c4cn(C)c5ccccc45)n2)CCO3)cc1NC(C)=O [Compound 258d, N-(2-((2-(dimethylamino)ethyl)(ethyl)amino)-3-fluoro-5-((4-(1-methyl-1H-indol-3-yl)-5,6-dihydrofuro[2,3-d]pyrimidin-2-yl)amino)phenyl)acetamide] | > 1000 |  |
| CC(=O)Nc1cc(Nc2ncc(F)c(-c3c[nH]c4ccccc34)n2)ccc1N(C)CCN(C)C [Compound 259a, N-(2-((2-(dimethylamino)ethyl)(methyl)amino)-5-((5-fluoro-4-(1H-indol-3-yl)pyrimidin-2-yl)amino)phenyl)acetamide] | 65.7 |  |
| CC(=O)Nc1cc(Nc2ncc(F)c(-c3cn(-c4ncc(F)c(-c5c[nH]c6ccccc56)n4)c4ccccc34)n2)ccc1N(C)CCN(C)C [Compound 259b, N-(2-((2-(dimethylamino)ethyl)(methyl)amino)-5-((5-fluoro-4-(1-(5-fluoro-4-(1H-indol-3-yl)pyrimidin-2-yl)-1H-indol-3-yl)pyrimidin-2-yl)amino)phenyl)acetamide] | 541 |  |
| CNc1cc(Nc2ncc(F)c(-c3c[nH]c4ccccc34)n2)ccc1N(C)CCN(C)C [Compound 260, N^1-(2-(dimethylamino)ethyl)-N^4-(5-fluoro-4-(1H-indol-3-yl)pyrimidin-2-yl)-N^1,N^2-dimethylbenzene-1,2,4-triamine] | 145 |  |
| CC(=O)Nc1cc(Nc2ncc(F)c(-c3cn(C)c4ccccc34)n2)ccc1N(C)CCN(C)C [Compound 261, N-(2-((2-(dimethylamino)ethyl)(methyl)amino)-5-((5-fluoro-4-(1-methyl-1H-indol-3-yl)pyrimidin-2-yl)amino)phenyl)acetamide] | 509 |  |
| CN(C)CCN(C)c1ccc(Nc2ncc(F)c(-c3cn(C)c4ccccc34)n2)cc1N [Compound 262, N^1-(2-(dimethylamino)ethyl)-N^4-(5-fluoro-4-(1-methyl-1H-indol-3-yl)pyrimidin-2-yl)-N-methylbenzene-1,2,4-triamine] | 966 |  |
| CNc1cc(Nc2ncc(F)c(-c3cn(C)c4ccccc34)n2)ccc1N(C)CCN(C)C [Compound 263, N^1-(2-(dimethylamino)ethyl)-N^4-(5-fluoro-4-(1-methyl-1H-indol-3-yl)pyrimidin-2-yl)-N^1,N^2-dimethylbenzene-1,2,4-triamine] | 704 |  |
| CC(=O)Nc1cc(Nc2ncc(F)c(-c3cn(C)c4cccc(F)c34)n2)ccc1N(C)CCN(C)C [Compound 264, N-(2-((2-(dimethylamino)ethyl)(methyl)amino)-5-((5-fluoro-4-(4-fluoro-1-methyl-1H-indol-3-yl)pyrimidin-2-yl)amino)phenyl)acetamide] | 1040 |  |
| CC(=O)Nc1cc(Nc2ncc(F)c(-c3cn(C)c4ccc(F)cc34)n2)ccc1N(C)CCN(C)C [Compound 265, N-(2-((2-(dimethylamino)ethyl)(methyl)amino)-5-((5-fluoro-4-(5-fluoro-1-methyl-1H-indol-3-yl)pyrimidin-2-yl)amino)phenyl)acetamide] | 414 |  |
| CC(=O)Nc1cc(Nc2ncc(F)c(-c3c[nH]c4cc(F)ccc34)n2)ccc1N(C)CCN(C)C [Compound 266, N-(2-((2-(dimethylamino)ethyl)(methyl)amino)-5-((5-fluoro-4-(6-fluoro-1H-indol-3-yl)pyrimidin-2-yl)amino)phenyl)acetamide] | 764 |  |
| CC(=O)Nc1cc(Nc2ncc(F)c(-c3cn(C)c4cc(F)ccc34)n2)ccc1N(C)CCN(C)C [Compound 267, N-(2-((2-(dimethylamino)ethyl)(methyl)amino)-5-((5-fluoro-4-(6-fluoro-1-methyl-1H-indol-3-yl)pyrimidin-2-yl)amino)phenyl)acetamide] | 303 |  |
| CC(=O)Nc1cc(Nc2ncc(F)c(-c3cn(C)c4cc(F)c(F)cc34)n2)ccc1N(C)CCN(C)C [Compound 268, N-(5-((4-(5,6-difluoro-1-methyl-1H-indol-3-yl)-5-fluoropyrimidin-2-yl)amino)-2-((2-(dimethylamino)ethyl)(methyl)amino)phenyl)acetamide] | 784 |  |
| CC(=O)Nc1cc(Nc2ncc(F)c(-c3c[nH]c4ccc(C)cc34)n2)ccc1N(C)CCN(C)C [Compound 269, N—N-(2-((2-(dimethylamino)ethyl)(methyl)amino)-5-((5-fluoro-4-(5-methyl-1H-indol-3-yl)pyrimidin-2-yl)amino)phenyl)acetamide] |  | 112 |
| CC(=O)Nc1cc(Nc2ncc(F)c(-c3cn(C)c4ccc(C)cc34)n2)ccc1N(C)CCN(C)C [Compound 270, N-(5-((4-(1,5-dimethyl-1H-indol-3-yl)-5-fluoropyrimidin-2-yl)amino)-2-((2-(dimethylamino)ethyl)(methyl)amino)phenyl)acetamide] | 1600 |  |
| COc1cccc2c1c(-c1nc(Nc3ccc(N(C)CCN(C)C)c(NC(C)=O)c3)ncc1F)cn2C [Compound 271, N-(2-((2-(dimethylamino)ethyl)(methyl)amino)-5-((5-fluoro-4-(4-methoxy-1-methyl-1H-indol-3-yl)pyrimidin-2-yl)amino)phenyl)acetamide] | 1480 |  |
| COc1cnc(Nc2ccc(N(C)CCN(C)C)c(NC(C)=O)c2)nc1-c1c[nH]c2ccccc12 [Compound 272a, N-(5-(4-(1H-indol-3-yl)-5-methoxypyrimidin-2-ylamino)-2-((2-(dimethylamino)ethyl)(methyl)amino)phenyl)acetamide] | 41 |  |
